Among the test systems are KM12 colon; U251 CNS; EKVX NSCLC; HOP-62 NSCLC; MALME-3M melanoma; OVCAR-3 ovarian; OVCAR-4 ovarian; MOLT-4 leukemia.
Common to all, as to experiment: NCI tumour cell line growth inhibition, 48 h

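Compound exposure: 48 hours, 5 concentrations, 96-well plates. Here, GI50 denotes the concentration required for 50% inhibition of growth. TGI: concentration producing complete growth inhibition.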

As for `Cc1ccc(S(=O)(=O)N2CCC3(C(/C=C/c4ccccc4)=Nc4ccccc43)C2c2ccccc2)cc1` (configuration not stated), the TGI in the assay on KM12 colon, in the assay on U251 CNS, with EKVX NSCLC, in the assay with HOP-62 NSCLC, in the assay on MALME-3M melanoma and in the assay on OVCAR-3 ovarian was greater than 100 µM throughout. Besides, in the assay on OVCAR-4 ovarian, the TGI is greater than 100 µM.

Turning to `N#C/C(=C/c1cccnc1)C(=O)c1ccccc1`, the TGI in the assay on KM12 colon, in the assay with U251 CNS, in the assay on EKVX NSCLC, in the assay with HOP-62 NSCLC, in the assay with MALME-3M melanoma and in the assay on OVCAR-3 ovarian was greater than 100 µM in each case. Further, the TGI in the assay with OVCAR-4 ovarian and with MOLT-4 leukemia was greater than 100 µM each time.

For `O=[N+]([O-])c1ccc(NC2OCC(O)C(O)C2O)cc1` (configuration not stated), the TGI with KM12 colon, in the assay on U251 CNS, with EKVX NSCLC, in the assay with HOP-62 NSCLC, with MALME-3M melanoma and with OVCAR-3 ovarian was greater than 100 µM in each case. The TGI in the assay on OVCAR-4 ovarian and with MOLT-4 leukemia was greater than 100 µM throughout.

In the case of `Cc1cc(N(CCC#N)CCC#N)ccc1/C=C(\NC(=O)/C=C/c1ccccc1)NC(=O)Nc1ccc(Cl)cc1`, the TGI with KM12 colon was greater than 100 µM; with U251 CNS, 39.4 µM; in the assay with EKVX NSCLC, greater than 100 µM; in the assay on MALME-3M melanoma it was greater than 100 µM; in the assay with OVCAR-3 ovarian it was greater than 100 µM; in the assay with OVCAR-4 ovarian it was greater than 100 µM. Further, the TGI in the assay with MOLT-4 leukemia is greater than 100 µM.

With `CC1=C(C(=O)Nc2ccccc2C)C(c2ccc([N+](=O)[O-])cc2)C(C(=O)Nc2ccccc2C)=C(C)N1`, the TGI in the assay with KM12 colon, in the assay on U251 CNS, with EKVX NSCLC, with HOP-62 NSCLC, with MALME-3M melanoma and in the assay with OVCAR-3 ovarian was greater than 100 µM each time. Further, the TGI with OVCAR-4 ovarian and in the assay on MOLT-4 leukemia was greater than 100 µM throughout.

`O=C([O-])c1ccc2c(c1)-c1nc-2nc2[n-]c(nc3nc(nc4[n-]c(n1)c1ccc(C(=O)[O-])cc41)-c1cc(C(=O)[O-])ccc1-3)c1ccc(C(=O)[O-])cc21.[Fe+2]`: the GI50 in the assay on KM12 colon is greater than 50 µM; with U251 CNS, greater than 38.4 µM; in the assay with EKVX NSCLC, greater than 50 µM; with HOP-62 NSCLC it was greater than 50 µM; with MALME-3M melanoma, greater than 50 µM; with OVCAR-3 ovarian, greater than 50 µM. The GI50 in the assay on OVCAR-4 ovarian was 49.2 µM; in the assay on MOLT-4 leukemia, greater than 50 µM. Also, the TGI in the assay on KM12 colon, in the assay on U251 CNS, in the assay on EKVX NSCLC, in the assay on HOP-62 NSCLC, in the assay with MALME-3M melanoma and in the assay with OVCAR-3 ovarian was greater than 50 µM throughout. Besides, the TGI in the assay on OVCAR-4 ovarian and in the assay with MOLT-4 leukemia was greater than 50 µM in each case.

Consider `CCOP(=O)(CC(=O)C1=C(O)C(CCCNC(=O)OC(C)(C)C)N(Cc2ccc(OC)c(OC)c2)C1=O)OCC` (configuration not stated), for which the TGI with KM12 colon, with U251 CNS, in the assay on EKVX NSCLC, in the assay on HOP-62 NSCLC, in the assay with MALME-3M melanoma and in the assay on OVCAR-3 ovarian was greater than 100 µM in each case. For the same compound, the TGI in the assay on OVCAR-4 ovarian and with MOLT-4 leukemia was greater than 100 µM each time.

As to `Cc1cc(Cc2cc(C)c(NC(=O)C(=O)C3C(=O)NC(=S)NC3=O)c(C(C)C)c2)cc(C(C)C)c1NC(=O)C(=O)C1C(=O)NC(=S)NC1=O`, the TGI in the assay on KM12 colon, in the assay on U251 CNS, with EKVX NSCLC, with HOP-62 NSCLC, in the assay with MALME-3M melanoma and in the assay on OVCAR-3 ovarian was greater than 100 µM each time. Also, the TGI in the assay with OVCAR-4 ovarian and in the assay on MOLT-4 leukemia was greater than 100 µM each time.

`CC12O[C@H](c3ccccc3)[C@H](c3ccccc3)N1C(=O)C1(C(=O)OCc3ccccc3)CC12` (some centres not stated): the TGI is greater than 100 µM in the assay with KM12 colon; greater than 100 µM with HOP-62 NSCLC; greater than 100 µM with MALME-3M melanoma; greater than 100 µM with OVCAR-3 ovarian; greater than 100 µM with OVCAR-4 ovarian; 63.2 µM in the assay with MOLT-4 leukemia.

With `CC1CCCC(C(O)CC2CC(=O)N(c3ccccc3)C(=O)C2)C1=O` (configuration not stated), the TGI in the assay on KM12 colon, with U251 CNS, in the assay on EKVX NSCLC, in the assay with HOP-62 NSCLC, in the assay with MALME-3M melanoma and in the assay with OVCAR-3 ovarian was greater than 100 µM throughout. Besides, the TGI in the assay on OVCAR-4 ovarian and in the assay on MOLT-4 leukemia was greater than 100 µM throughout.

For the compound `CCC(C(=O)[O-])C(=O)[O-].CCC(C(=O)[O-])C(=O)[O-].N.N.NCCCCCN.[Pt+4].[Pt+4]`, the GI50 in the assay with KM12 colon, in the assay on U251 CNS, in the assay with EKVX NSCLC, in the assay with HOP-62 NSCLC, with MALME-3M melanoma and in the assay on OVCAR-3 ovarian was greater than 100 µM each time. In addition, the GI50 was greater than 100 µM with OVCAR-4 ovarian and 84.3 µM in the assay with MOLT-4 leukemia. The TGI in the assay on KM12 colon, in the assay with U251 CNS, in the assay on EKVX NSCLC, in the assay on HOP-62 NSCLC, in the assay on MALME-3M melanoma and in the assay with OVCAR-3 ovarian was greater than 100 µM each time. The TGI in the assay on OVCAR-4 ovarian and in the assay on MOLT-4 leukemia was greater than 100 µM throughout.

`CN(C)c1ccc(/C=C2\CNC/C(=C\c3ccc(N(C)C)cc3)C2=O)cc1`: the TGI in the assay on U251 CNS is 28.7 µM; in the assay on EKVX NSCLC, greater than 100 µM; in the assay on HOP-62 NSCLC, greater than 100 µM; in the assay with MALME-3M melanoma it was greater than 100 µM; in the assay with OVCAR-3 ovarian it was greater than 100 µM; in the assay with OVCAR-4 ovarian, 29.7 µM. The compound further yielded a TGI with MOLT-4 leukemia greater than 100 µM.

Consider `O=C(CC/C(C/C(=N/O)c1ccc(F)cc1)=N/O)N(Cc1ccccc1)Cc1ccccc1`, for which the TGI with KM12 colon, with U251 CNS, in the assay with EKVX NSCLC, in the assay on HOP-62 NSCLC, in the assay with MALME-3M melanoma and in the assay on OVCAR-3 ovarian was greater than 100 µM throughout. Also, the TGI in the assay on OVCAR-4 ovarian and in the assay with MOLT-4 leukemia was greater than 100 µM in each case.

Take `CCOc1ccccc1NC(=O)CCc1nnc2s/c(=C\CCc3ccccc3)c(=O)n12`: the TGI in the assay on KM12 colon, with U251 CNS, in the assay with HOP-62 NSCLC, in the assay with MALME-3M melanoma, in the assay on OVCAR-3 ovarian and with OVCAR-4 ovarian was greater than 100 µM each time. Also, the TGI in the assay with MOLT-4 leukemia was greater than 100 µM.
